Laboratory results from patent publication US10017451B2, “Lactic acid extraction” (PURAC BIOCHEM BV, priority 2011, dated 2018).
Values belong to the compound of their own block, whether it stands above or below them.

What was measured:
Type in all cases: physicochemical
[1] = Lactic acid distribution ratio MIBK/aqueous MgCl2 solution (Example 7); settings: initial lactic acid 20 wt %
Excerpt: Forward extraction and back extraction as used in the method of the invention are based on the difference in solubility of the lactic acid in water and the organic solvent at different temperatures. The solubility of a compound in one solvent relative to another solvent can be expressed in terms of the distribution ratio (DR). This ratio gives an indication how a compound will be distributed over the aqueous phase (e.g. the aqueous mixture) and the organic phase (e.g. the organic liquid) in a two-phase system at equilibrium. The distribution ratio may be defined as the ratio of the lactic acid concentration dissolved in the organic phase ([lactic acid]organic) over the concentration of the lactic acid dissolved in water ([lactic acid]water) provided that the two phases are in equilibrium with each other: DR=[lactic acid]organic/[lactic acid]water(1)
The resulting two phase system was stirred at 20° C. or 60° C. for 30 minutes with sufficient speed to ensure that both phases are well dispersed. Hereafter, the stirring is stopped, the phases were allowed to separate and samples were taken from both phases. The concentration of lactic acid (wt %) in these samples was determined by potentiometric titration. Hereafter the distribution ratio was calculated as the ratio of the lactic acid concentration (wt %) in the MIBK organic solvent phase divided by the lactic acid concentration (wt %) in the aqueous phase.

[2] = Stability of solvents in contact with lactic acid feed solution, gas chromatography (Example 6); settings: 60° C.
Method: This experiment was conducted to compare the stability of two solvents, MIBK and Isoamyl alcohol in contact with the lactic acid feed solution as prepared in example 1. For each solvent a closed glass reactor was filled with 20 g of solvent and 20 g of the lactic acid feed solution, put in an oven to maintain a temperature of 60° C. and shaken continuously.
After 3 hrs, 24 hrs (1 day) and 168 hrs (1 week) the shaking was stopped for 1 hour to allow the phases to settle, a sample was taken from the solvent top layer, and the composition of the solvent top layer analyzed by gas chromatography.

[3] = MIBK solubility in aqueous MgCl2 solution, gas chromatography (Example 8); settings: aqueous phase
Method: Hereafter, the stirring is stopped, the phases were allowed to separate and a sample was taken from the aqueous bottom phase. The concentration of MIBK in this sample was determined by gas chromatography.

Lactic acid distribution ratio ([1]; MgCl2 0 wt %, 20° C.): 0.16 wt %/wt % | Lactic acid distribution ratio ([1]; MgCl2 0 wt %, 60° C.): 0.19 wt %/wt % | Lactic acid distribution ratio ([1]; MgCl2 10.5 wt %, 20° C.): 0.33 wt %/wt % | Lactic acid distribution ratio ([1]; MgCl2 10.5 wt %, 60° C.): 0.37 wt %/wt % | Lactic acid distribution ratio ([1]; MgCl2 16.0 wt %, 20° C.): 0.49 wt %/wt % | Lactic acid distribution ratio ([1]; MgCl2 16.0 wt %, 60° C.): 0.56 wt %/wt %
Compound: CC(O)C(=O)O (stereo not drawn) [lactic acid]

MIBK solubility ([3]; MgCl2 0 wt %, 20° C.): 1.8 wt % | MIBK solubility ([3]; MgCl2 0 wt %, 60° C.): 1.4 wt % | MIBK solubility ([3]; MgCl2 15 wt %, 20° C.): 0.48 wt % | MIBK solubility ([3]; MgCl2 15 wt %, 60° C.): 0.20 wt % | MIBK solubility ([3]; MgCl2 30 wt %, 20° C.): 0.17 wt % | MIBK solubility ([3]; MgCl2 30 wt %, 60° C.): 0.11 wt %
Compound: CC(=O)CC(C)C [MIBK, methyl-isobutyl-ketone]
changes in purity of the solvent ([2]; after 168 hrs, GC of solvent top layer): no changes in the purity of the MIBK could be detected

isoamyllactate concentration ([2]; 24 hrs and 168 hrs samples): 22.5 area % | isoamyllactate formed ([2]; after 3 hrs, GC of solvent top layer): 14.6 area %
Compound: CC(C)CCO [isoamyl alcohol]
